Active and inactive are the calls of the source. The rule behind the calls is not given here.
Columns and labels:
Format in all cases: functional, organism-based
Escherichia coli [1] = assay: Antimicrobial activity against CTX-M-15 ESBL producing Escherichia coli clinical isolate by CLSI disk diffusion assay
Escherichia coli [2] = assay: Antimicrobial activity against CTX-M ESBL producing Escherichia coli clinical isolate by CLSI disk diffusion assay
Escherichia coli [3] = assay: Antimicrobial activity against TEM-10 ESBL producing Escherichia coli clinical isolate by CLSI disk diffusion assay
Escherichia coli [4] = assay: Antimicrobial activity against SHV-5 ESBL producing Escherichia coli clinical isolate by CLSI disk diffusion assay
Escherichia coli [5] = assay: Antimicrobial activity against SHV-7 ESBL producing Escherichia coli clinical isolate by CLSI disk diffusion assay

CC(C)(O/N=C(\C(=O)N[C@@H]1C(=O)N2C(C(=O)[O-])=C(C[n+]3ccccc3)CS[C@H]12)c1csc(N)n1)C(=O)O
Activity (Escherichia coli [1]): inactive
Activity (Escherichia coli [2]): inactive
Activity (Escherichia coli [3]): inactive
Activity (Escherichia coli [4]): inactive
Activity (Escherichia coli [5]): inactive

CO/N=C(\C(=O)N[C@@H]1C(=O)N2C(C(=O)O)=C(COC(C)=O)CS[C@H]12)c1csc(N)n1
Activity (Escherichia coli [3]): Active

Reference: ChEMBL document CHEMBL1649242, “Molecular epidemiology of CTX-M-producing Escherichia coli isolates at a tertiary medical center in western Pennsylvania” (Antimicrob Agents Chemother, 2009)
